From patent US20250205195A1, “BENZYLOXY-BENZYLAMINYL AMINO ACID DERIVATIVE FOR ADJUSTING TSLP/TSLPR SIGNAL TRANSMISSION” (AMTIXBIO CO., LTD., priority 2021, published 2025)

Tested on: TSLP
Test: TNF-α-induced TSLP in HaCaT cells (ELISA)
Format: cell-based, human
Conditions: HaCaT culture supernatant, TNF-α stimulated, 1 h pretreatment, equal amounts of compounds
Protocol: Human keratinocyte HaCaT cells (obtained from the Korean Cell Line Bank) were seeded in a 12-well plate at an initial density of 2×10^5 cells/well and cultured at 37° C. for 16 to 24 hours. FK506 (Sigma), compounds 27 and 29 of the present invention were then added to the HaCaT cell culture medium at final concentrations of 0, 1, 2, 4, and 8 µg/mL, and the cells were cultured at 37° C. for 1 hour. Next, to induce TSLP, the culture medium was treated with TNF-α (Sigma-Aldrich, USA) to a final concentration of 100 ng/mL, and the cells were cultured for an additional 24 hours at 37° C. The culture supernatant was collected, and the amount of induced TSLP from HaCaT cells was determined using an ELISA kit (R&D Systems, USA) according to the manufacturer's instructions. […] Under the same conditions, to compare the TSLP reduction efficiency R.R. (Reduction rate) of compound 27, positive control compound and compound 29, equal amounts of compounds 27, 29 and FK506 (Sigma-Aldrich, USA) were pretreated for 1 hour. The amount of TSLP released into the culture supernatant from HaCaT cells stimulated by TNF-α was quantitatively analyzed and presented in Table 3 and FIG. 3 (c).

Compound: CCC(NC)C(=O)NCc1ccc(OCc2ccc(Cl)cc2)cc1 (racemic) [Compound 29, (R)/(S)—N-(4-((4-chlorobenzyl)oxy)benzyl)-2-(methylamino)butanamide]
- R.R (Reduction rate) of TSLP: 58%
- TSLP: 210 ng/mL
